Experimental data reported in patent US20050124638A1, “Benzimidazoles and analogs thereof as antivirals” (priority 2003, published 2005).
Where two headings read alike, the source gives them in different places.

Tests used:
[1] = system: HCV IRES stem IIa RNA target; assay: Mass spectrometry based binding assay; settings: for binding percentages of ligand to target: ligand 50 μM, IIa target 2.5 μM, Table 1
[2] = Single dose in vivo pharmacokinetic study; settings: rats, single 3.0 mg/kg IV, mean
Description: A single dose pharmacokinetic study was performed to investigate the pharmacokinetics of representative compounds. Of particular interest was […] the ability of the compounds to accumulate in liver, which is the target tissue for HCV chemotherapy as it is the primary reservoir of virus. 3-4 rats per group were administered a single dose (3 mg/kg intravenously, IV or 6 mg/kg orally, PO). Blood samples were taken at 0.25, 0.5, 1, 2, 3, 4, 6, and 8 h timepoints, and pharmacokinetic parameters calculated. Both representative compounds were rapidly distributed to tissues, as evidenced by the high clearance rates and volumes of distribution, and low levels of excretion (ca 10% of total drug in urine and feces at 8 h). Major tissues were examined for presence of drug. […] The tissue accumulation for the IV dose is shown in FIG. 1, as a function of concentration and percent of total administered dose.

[3] = system: HCV RNA levels in Ntat2ANeo replicon containing cell line; assay: Replicon assay (Ntat2ANeo replicon cells, quantitative RT-PCR of HCV RNA); format: cell-based; settings: Hepatitis C virus; Table 8
female mice = assay: Acute in vivo toxicity study; settings: 5 or 45 mg/kg i.p. for 3 days
Description: In the study design, 3-4 female mice/group were dosed with 0, 5 or 45 mg/kg of IBIS00553642, IBIS000408094, or IBIS00405746 for 3 days (i.p.). Clinical signs, body weights, clinical pathology, organ weights, and histopathology endpoints were evaluated.
A single dose toxicity study was performed to investigate the toxicity of representative compounds. Briefly, 3-4 female mice per group were administered 0, 5, or 45 mg/kg drug (intraperitoneal) on consecutive days for 3 days. At the end of the study, mice were sacrificed, and clinical signs, body weights, clinical pathology, organ weights, and histopathology endpoints were evaluated. […] The gross findings at necropsy were minor and limited to discolorations in liver and kidney or large gallbladder in 4/18 mice (no dose response and unclear relationship to drug). […] There were no drug-related effects on clinical pathology.

MTT toxicity assay = format: cell-based
Source text: The color was quantified by spectrophotometric means. For each cell type a linear relationship between cell number and absorbance is established, enabling quantification of changes of proliferation.

[4] = Table 8, read-out: Kd to IIa target

Structure (SMILES) | Kd [1, 4] | IC50 [3] | CC50 at 48 h (MTT toxicity assay) | other results
Nc1nc2ccccc2n1CCCN1CCCC1 | – | – | – | binding percentages of ligand to target [1]: 15%
CCN(CC)CCn1c(N)nc2ccccc21 | – | – | – | binding percentages of ligand to target [1]: 15%
CN(C)CCn1c(N)nc2ccccc21 | – | – | – | binding percentages of ligand to target [1]: 11%
Nc1nc2ccccc2n1CCOc1ccccc1 | – | – | – | binding percentages of ligand to target [1]: 6%
COc1ccc2nc(N)n(CCCN(C)C)c2c1 | – | – | – | MS Target Selectivity ([1]; Table 2): ˜10; Kd ([1]; Table 2, read-out: Est. KD): ~40 µM
CN(C)CCCOc1ccc2nc(N)[nH]c2c1 | – | – | – | MS Target Selectivity ([1]; Table 3): ˜2; Kd ([1]; Table 3, read-out: Est. KD): > 500 µM
CN(C)CCCOc1ccc2ncn(CCCN(C)C)c2c1 | – | – | – | MS Target Selectivity ([1]; Table 3): 1; Kd ([1]; Table 3, read-out: Est. KD): > 500 µM
CN(C)CCCn1c(N)nc2ccc(OCCCN(C)Cc3ccco3)cc21 | – | – | – | clearance ([2]; rat, plasma): 2.07 L/h/kg; Vd ([2]; rat, plasma, read-out: Vdss): 82.8 L/kg; % AUC Extrap [2]: 80.0%; AUC [2]: 0.311 µg·h/mL; AUC Extrap [2]: 1.928 µg·h/mL; Co [2]: 201 ng/mL; MRT [2]: 3.1 h; T1/2 [2]: 37.5 h
CN(C)CCCOc1ccc2nc(N)n(CCCN(C)C)c2c1 [IBIS00403514] | 3.8 µM | 37.1 µM | – | –
CN(C)CCCn1c(N)nc2ccc(OCCCN[C@@H]3CCN(Cc4ccccc4)C3)cc21 [IBIS00405746] | – | – | – | Clinical Signs (female mice): No significant toxicity at 5 mg/kg dose.
CN(CCCOc1ccc2nc(N)n(CCCN3CCCCC3)c2c1)Cc1ccc[nH]1 [IBIS00408094] | – | – | – | Clinical Signs (female mice): No significant toxicity at 5 and 45 mg/kg doses.
CN(C)CCCOc1ccc2nc3n(c2c1)CC(CN(C)C)CN3 (centres unmarked) [IBIS00408169] | 4.5 µM | 28.7 µM | > 100 µM | –
CN(C)CC1CNc2nc3ccc(OCCCNC4CCN(Cc5ccccc5)CC4)cc3n2C1 (centres unmarked) [IBIS00528633] | 4 µM | 13.7 µM | > 100 µM | –
CN(C)CC1CNc2nc3ccc(OCCCN4CCC(N5CCCC5)CC4)cc3n2C1 (centres unmarked) [IBIS00528634] | 1.7 µM | 19.2 µM | > 100 µM | –
CN(C)CC1CNc2nc3ccc(OCCCN[C@@H]4CCN(Cc5ccccc5)C4)cc3n2C1 (some centres unmarked) [IBIS00528635] | 1 µM | 42.3 µM | 90 µM | –
CN(C)CC1CNc2nc3ccc(OCCCN(C)Cc4ccc[nH]4)cc3n2C1 (centres unmarked) [IBIS00528636] | 1.2 µM | 27.2 µM | 90 µM | –
CN(C)CC1CNc2nc3ccc(OCCCN(C)Cc4ccccn4)cc3n2C1 (centres unmarked) [IBIS00528637] | 0.56 µM | 14.2 µM | > 100 µM | –
CC1CCCCN1CCCn1c(N)nc2ccc(OCCCN(C)Cc3ccccn3)cc21 (centres unmarked) [IBIS00553642] | – | – | – | Clinical Signs (female mice): No significant toxicity at 5 and 45 mg/kg doses.
CN(C)CCCOc1ccc2nc3n(c2c1)CC(CN1CCCCC1)CN3 (centres unmarked) [IBIS00554807] | 3.4 µM | 14.1 µM | > 100 µM | –
CN(CCCOc1ccc2nc3n(c2c1)CC(CN1CCCCC1)CN3)Cc1ccccn1 (centres unmarked) [IBIS00554811] | 4.3 µM | 24 µM | > 100 µM | –
CN(CCCOc1ccc2nc3n(c2c1)CC(CN1CCCCC1)CN3)Cc1ccco1 (centres unmarked) [IBIS00554813] | 5.1 µM | 18.2 µM | > 100 µM | –
CN(C)CC1CNc2nc3ccc(OCCCN(C)Cc4cccn4C)cc3n2C1 (centres unmarked) [IBIS00554842] | 0.78 µM | 4 µM | 50 µM | –
CN(C)CC1CNc2nc3ccc(OCCCN(C)Cc4ncc[nH]4)cc3n2C1 (centres unmarked) [IBIS00554843] | 3.1 µM | > 100 µM | > 100 µM | –
CN(C)CC1CNc2nc3ccc(OCCCN(C)Cc4ccco4)cc3n2C1 (centres unmarked) [IBIS00554844] | 1.7 µM | 4.9 µM | > 100 µM | –
